# Results taken from patent US12697366B2, “Thermogenic compositions and methods” (Ohio State Innovation Foundation, priority 2016, dated 2026).
# Key:
# STZ mice = experiment: AAC2, INS and AAC2-INS treatment of STZ mice (streptozotocin-induced type 1 diabetes); details: mouse, in vivo
# Protocol: The untreated STZ mice died 32 days after STZ induction of experimental type 1 diabetes. […] Liver toxicity was measured by plasma levels of liver enzyme aspartate aminotransferase (AST).
# Human INS was used for treatment to distinguish from endogenous mouse INS. […] Insulin tolerance test (ITT) was used to assess insulin sensitivity. […] Glucose tolerance test (GTT) was used to assess glucose tolerance.
# […] SLC6A6 is a principal transporter for neurotransmitter and osmolyte taurine, in all treated STZ mice. […] MVK a key kinase in cholesterol synthesis pathway. […] GPX6 a key antioxidant enzyme induced in the liver in response to oxidative stress.
# Cognitive performance was measured using Barnes maze behavioral test to measure spatial learning (escape latency (60B) and number of errors (60C)) and memory (60D).
# DIO mice = experiment: Study 3 (Example 2): EREG injected into epididymal iAb fat of DIO mice; format: in vivo, mouse
# Protocol: 6-week old C57BL6/J male mice (WT) were fed a high fat diet (HF, 45% kcal from fat, D12451, Research Diet Inc., New Brunswick, NJ) for 30 days. Then mice were randomly assigned for • 1) a control group injected with 0.1 mL sterile phosphate buffered saline (PBS) into both epididymal iAb fat (n=7), and • 2) EREG-treated group injected with 20 ng EREG per epididymal iAb fat depot (n=7). Mice were injected with 0.1 mL sterile PBS, containing 200 ng EREG/mL. Mice were individually housed and pair fed when injection started. Mice were injected every other day for 2 weeks. Metabolic measurements were performed as described in 2.5. WAT were collected for protein, mRNA, and histology. Metabolic parameters in study 2.3 and 2.4 were measured by indirect calorimetry (CLAMS, Columbus Instruments, Columbus, OH) at ambient temperature (22° C.) with 12 h light/dark cycles. Animals were fed the same HF diet and water provided ad libitum. Mice were placed individually and allowed to acclimatize in the chambers for 12 h, and O2 consumption, CO2 production, energy expenditure, and locomotor activity were measured for 24 h. Then temperature was changed to 4° C. for 6 h. […] NanoString's nCounter analysis system performed direct detection of target molecules from a single sample using color-coded molecular barcodes, giving a digital quantification of the number of target molecules. A custom panel containing Ereg, thermogenic genes, and PPARα-target genes was designed and used for simultaneous quantification of 37 genes including housekeeping genes. All data were normalized to 3 housekeeping genes Gapdh, Pgk1, and Tubb quantified in the same samples using nSolver Software. Total mRNA (100 ng in 5 μl) was hybridized overnight with nCounter Reporter (20 μl) probes in hybridization buffer and in an excess of nCounter Capture probes (5 μL) at 65° C. for 16-20 h. The hybridization mixture containing target/probe complexes was allowed to bind to magnetic beads containing complementary sequences on the Capture Probe. After each target found a probe pair, excess probes were washed followed by sequential binding to sequences on the Reporter Probe. Biotinylated capture probe-bound samples were immobilized and recovered on a streptavidin-coated cartridge. The abundance of specific target molecules was then quantified using the nCounter Digital Analyzer. Individual fluorescent barcodes and target molecules present in each sample were recorded with a CCD camera by performing a high-density scan (600 fields of view). Images were processed internally into a digital format and were normalized using the NanoString nSolver software analysis tool. Counts were normalized for all target RNAs in all samples based on the positive control RNA to account for differences in hybridization efficiency and post-hybridization processing, purification, and immobilization of complexes. The average was normalized by background counts (the average of the eight negative control counts) for each sample. Subsequently, a normalization of mRNA content was performed based on Gapdh, Pgk1, and Tubb internal reference housekeeping genes. Plasma FFA and TG were measured in plasma samples from study 3, using kits from Wako Diagnostics (Mountain View, CA). Plasma samples were collected from mice in Study 3 and analyzed using a mouse leptin ELISA Kit (Alpco, Salem, NH) according to manufacturer's instruction. The absorbance (450 nm) was measured using Synergy H1 Hybrid Multi-Mode Microplate Reader. Insulin levels were measured in plasma from mice in Study 4 using an ultra-sensitive mouse insulin ELISA kit (Crystal Chem, Downers Grove, IL) according to manufacturer's instruction.
# ob/ob mice = experiment: Study 4 (Example 2): EREG injected into epididymal iAb fat of ob/ob mice; format: in vivo, mouse
# Protocol: 6-week old Ob/Ob male mice, purchased from the Jackson laboratory (n=10), were fed a high fat diet (HF, 45% kcal from fat, D12451, Research Diet Inc., New Brunswick, NJ) for 30 days and then randomly assigned into two groups: • 1) a control group injected with 0.1 mL sterile PBS into both epididymal iAb fat (n=5), and • 2) EREG-treated group injected with 60 ng EREG per epididymal iAb fat depot (n=5). Mice were injected with 0.1 mL sterile PBS, containing 600 ng EREG/mL. These mice were pair fed and individually housed during injections. […] Metabolic measurements were performed as described in 2.5. WAT were collected for protein, mRNA, and histology. Metabolic parameters in study 2.3 and 2.4 were measured by indirect calorimetry (CLAMS, Columbus Instruments, Columbus, OH) at ambient temperature (22° C.) with 12 h light/dark cycles. Animals were fed the same HF diet and water provided ad libitum. Mice were placed individually and allowed to acclimatize in the chambers for 12 h, and O2 consumption, CO2 production, energy expenditure, and locomotor activity were measured for 24 h. Then temperature was changed to 4° C. for 6 h. […] GTT was performed in overnight fasted Ob/Ob mice (study 4, N=5 per group) by intraperitoneal injection of 0.004 mL 25% glucose/g body weight. One week after GTT, an ITT test was performed in same overnight fasted mice. They were injected with a single intraperitoneal insulin dose (1 mU of insulin/g body weight). Blood glucose was measured from mouse tails by One Touch Ultra glucometer (LifeScan, Wayne, PA).
substance,measurement,setting,value
insulin: insulin (bovine or human),expression of Glutathone peroxidase (GPX6),STZ mice,significantly increased
same,expression of insulin 1 gene (Ins1) in the brain,STZ mice,detrimental suppression
"EREG: Epiregulin, member of the epidermal growth factor family; recombinant mouse or human protein",metabolic rate at ambient temperature and after cold exposure,DIO mice; CLAMS,increase
same,body temperature in the abdominal area,"DIO mice; EREG 20 ng per depot every other day, 2 weeks, infrared camera",profound effects
same,weight gain,DIO mice; HF diet,prevented
same,expression of PPARα target genes Mcat and Cpt2 in iAb fat,DIO mice; NanoString,increased
same,expression of pro-inflammatory genes Tnfa and Mcp1 in iAb fat,DIO mice; NanoString,suppressed
same,"expression of thermogenic genes (Dio2, Pgc1a, Cidea, Rip140) and CoxIV in iAb fat",DIO mice; NanoString,significantly increased
same,light and dark period activity,DIO mice; before and after cold exposure,did not influence
same,Lep expression in iAb fat,DIO mice; between groups,similar
same,levels of BAT marker Prdm16 in iAb fat,DIO mice; between groups,similar
same,food consumption,DIO mice; both groups,similar
same,decrease of circulating triglyceride levels,DIO mice; compared to control group,48%
same,increase in Ucp1 and Pparg expression in iAb fat,"DIO mice; mouse, in vivo",did not reach statistical significance
same,less iAb fat than non-treated mice,"DIO mice; mouse, in vivo",32%
same,"liver, BAT and subcutaneous WAT weight",DIO mice; normalized to body weight,did not influence
same,"levels of secreted LEP, higher than in non-treated mice","DIO mice; plasma, ELISA",215%
same,RER,DIO mice; treated vs non-treated,similar
same,increase in non-esterified fatty acid in the circulation,DIO mice; vs control group,580%
same,time to maximal metabolic rate plateau during cold exposure,DIO mice; vs control group,significantly shorter
same,RER during the light cycle,ob/ob mice; EREG-treated vs control,significantly lower
same,activity after transition from ambient temperature to the cold,ob/ob mice; EREG-treated vs control,higher
same,weight gain,ob/ob mice; after 6 weeks of treatment with EREG,reduced
same,expression of PPARα target genes and mitochondrial genes in iAb fat,ob/ob mice; between groups,similar
same,metabolic rate before and during cold exposure,ob/ob mice; between groups,identical
same,response to insulin (ITT),ob/ob mice; between groups,similar
same,glucose tolerance (GTT),ob/ob mice; compared to non-treated group,markedly improved
same,"weight of BAT, WAT depot and liver","ob/ob mice; mouse, in vivo",not associated with significant changes
same,food intake,ob/ob mice; pair-fed HF diet,identical
